Measured values published in US20220251152A1, “COMPOSITIONS AND METHODS FOR SELECTIVE PROTEIN DEGRADATION” (Novartis AG, priority 2019, published 2022).
“Also recorded” adds a separate entry of the source.

How the values were obtained:
K562 Cells = assay: CART killing assay against CD19 negative target cells (luciferase); format: cell-based; conditions: with or without 1 μM lenalidomide; FIG. 32A
Excerpt: (§1) The frozen CART cells were thawed in T cell media and co-cultured with either CD19 negative (K562 Cells) or CD19 positive target cells (Nalm6 cells), both expressing luciferase. Both the number of CART cells and the total number of T cells were normalized across samples; the latter was achieved by adding UTD cells. A titration of CART cells was done keeping the target cell number constant at 25,000 cells. The highest […] (E:T) explored was 20:1 and a 8 point dilution curve was used. […] The co-culture experiment was conducted in clear bottom black plates in a final volume of 200 μL. Upon a 20 hr incubation, 100 μL of supernatant was removed and cytokine levels were measured. To the rest, 100 μL Bright-Glo Luciferase assay reagent (substrate+enzyme) was added and incubated for 10 minutes, at room temperature. The % Killing was measured using the formula: Specific lysis (%)=(1−(sample luminescence/average maximal luminescence))*100.

CAR19 internal HilDtag [1] = assay: FACS and Western blot of cells expressing CAR19 internal HilDtag; format: cell-based; conditions: 10 μM lenalidomide
luciferized Nalm-6 = assay: Nalm-6 xenograft mouse model, tumor burden by IVIS; format: in vivo, NSG mice
Protocol: (§2) Female NOD.Cg-Prkdc^scid Il2rg^tm1Wjl/SzJ mice (NSG) mice, 6-8 wk of age, were purchased from Jackson Laboratories. Animal studies were carried out under protocols approved by the Institutional Animal Care and Use Committee at NIBR. NSG mice were inoculated with 1.0×10^6 luciferized Nalm-6 intravenously. Sever days later, CAR-T cells were infused intravenously into tumor-bearing mice; unless otherwise stated, lenalidomide were dosed orally at the same time. Tumor burden was measured by IVIS and was quantified as radiance in the region of interest (ROI), which was generally the area of one mouse. Mice were euthanized upon losing more that 20% of body weight or development of hind limb paralysis. Graft vs. host disease was defined in indicated animals as hair loss, behavioral changes, and clear decrease in health not attributable to Nalm-6 luciferase signal.

[2] = test system: CAR19 fused to HilD tag and/or FurON; assay: Western blot of CAR19 fused to HilD tag and/or FurON in JNL cells; format: cell-based, human; conditions: CAR19-16GS-HilD-tag (construct 769); 10 μM lenalidomide
Protocol: Viruses were prepared from maxi preps and used to transduce JNL cells. Either 275 μL of viral supernatant or 700 μL of viral supernatant was used for transduction. JNL cells are Jurkat cells engineered with a luciferase gene under control of the NFAT promoter.
Briefly, cells were diluted to 0.5×10^6 in 3 mL total in 6 well dishes. […] Bazedoxifene was added at a final concentration of 1 μM to every well that contained a cell line expressing a fusion comprising FurON. […] Cells were incubated at 37° C. and 5% CO2 overnight.
Lysates were centrifuged, supernatant transferred to new tubes and protein quantities read by Lowry Assay (BioRad 5000111). Each sample was normalized to 30 μg total protein in a 20 μL volume with 4× sample buffer (Thermo Scientific NP0007) and 10× reducing agent (Thermo Scientific NP0009). Samples were subjected to Western blot analysis using a mouse anti-V5 antibody (Thermo Scientific MA5-15253) at 1:1000 dilution, a mouse anti-actin antibody (Sigma Aldrich A5441) at 1:10000 dilution, and/or a mouse anti-CD3z antibody (BD 551034) at 1:1000 dilution.
Cells were harvested and subjected to Western blot as described above using a mouse anti-actin antibody (Sigma Aldrich A5441) at 1:10000 dilution or a mouse anti-CD3zeta antibody (BD 551034) at 1:1000 dilution.

CAR19 internal HilDtag [3] = assay: Jurkat NFAT luciferase (JNL) CAR functional assay, CAR19 internal HilD-tag cells; format: cell-based; conditions: 8-point dilution, 10 uM top; FIG. 43C
Protocol: Cell plating: The CAR19 Internal HilD-tag cell line was diluted to 0.5×10^6 in 20 ml RPMI 1640 media (Thermo Fisher Scientific 11875-085) 10% FBS 1× pen/strep. 20 ul (0.5×10^6 cells) of this cell line was plated in a white solid-bottom 384 well plates (Greiner789163-G).
Plates were incubated for 15 hours at 37 C, 5% CO2.
B-cell addition and functional assay: K562 and Nalm6 cells were re-suspended at 0.5×10^6 cells/ml. […] Cells were stored at 37 C, 5% CO2 incubator for eight hours. Samples were then treated with 40 ul (1:1) Bright Glo (Promega E2620) and luminescence was read using Perkin Elmer's Viewlux with a 20 second exposure.

CAR19 = assay: Surface CAR expression in primary T cells expressing CAR19, flow cytometry; format: cell-based; conditions: lenalidomide 1, 0.1, 0.01 μM, 24 or 48 hrs, FIG. 31B
Excerpt: Cells were harvested and washed with PBS.

Nalm6 = assay: In vivo tumor control by CART19.HilD after Nalm6 implant (total flux); parameters: species or system mice
Excerpt: Total flux of ROI is plotted against days post Nalm6 implant.

Nalm6 cells = assay: CART killing assay against CD19 positive target cells (luciferase); format: cell-based; conditions: 1 μM lenalidomide, 20 hr co-culture; FIG. 32C
Excerpt: as §1

[4] = test system: CART cells in peripheral blood; assay: CART cells in peripheral blood of xenograft mice, flow cytometry; format: in vivo, NSG mice; conditions: after lenalidomide treatment; FIG. 35
Protocol: as §2

[5] = test system: IFN gamma and IL2 secretion; assay: Cytokine secretion by CART cells co-cultured with CD19 positive cells; format: cell-based; conditions: 1 μM lenalidomide
Excerpt: as §1

CAR19 internal HilDtag [6] = assay: CAR19 internal HilDtag in JNL cells, FACS; format: cell-based; conditions: 10 uM lenalidomide, 24 hours; FIG. 43A
Protocol: FACS: Cells were harvested in u-bottom plates and washed using 1×PBS. […] After incubation the cells were washed using PBS.

CAR19 internal HilDtag [7] = assay: CAR19 internal HilDtag in Jurkat cells, Western blot; format: cell-based; conditions: 10 uM lenalidomide, 24 hours; FIG. 43B
Excerpt: The gels were run in duplicate, one for actin and the other for either V5 or CD3Z.

[8] = test system: CAR19 fused to HilD tag and/or FurON; assay: Flow cytometry of surface CAR expression on JNL cells, 10 μM lenalidomide and/or bazedoxifene 24 hours; format: cell-based, human; conditions: FurON-CAR19 constructs with or without the HilD tag
Excerpt: Next, the surface expression of CAR19 on stably transduced JNL cells was examined by flow cytometry. […] On Day 2, cells were harvested, stained using biotinylated-protein L (Genscript, M00097) followed by PE conjugated streptavidin (Jackson Lab, 016-110-084), and subjected to flow cytometry analysis using Fortessa instrument.

[9] = test system: CAR19 internal HilDtag (NFAT luciferase); assay: JNL assay of CAR19 internal HilDtag with Nalm6 or K562 cells; format: cell-based; conditions: lenalidomide dose-response
Excerpt: FIGS. 43A, 43B, and 43C are diagrams showing characterization of an exemplary anti-CD19 internal HilDtag CAR construct.

[10] = test system: HilD-tagged CAR19 or FurON-CAR19 (NFAT luciferase reporter); assay: JNL NFAT luciferase reporter assay, lenalidomide dose-response at three treatment time points; format: cell-based, human; conditions: for decrease of luminescence signal at the highest doses: construct 767; for reduction of luminescence signal: highest 2-3 doses (10 μM, 3.16 μM, and 1 μM)
Protocol: This study used the JNL cell line described above, which is a Jurkat cell line modified with an NFAT luciferase reporter. Co-culturing of CAR19-expressing JNL cells and CD19-expressing B cells activates the NFAT signaling, leading to luciferase expression.
For target cell co-culture, K562 cells or CD19-expressing K562 cells were added to each well containing JNL cells and cultured on a GNF Systems Ultra-high throughput screening system in a 37° C. and 5% CO2 incubator.

Nc1cccc2c1CN(C1CCC(=O)NC1=O)C2=O (stereo not shown) [lenalidomide, 3-(4-amino-1-oxoisoindolin-2-yl)piperidine-2,6-dione]
killing against CD19 negative cells (K562 Cells): Low background killing
CAR degradation (FACS) (CAR19 internal HilDtag [1]; JNL cells): degradation
CAR19 degradation (Western blot) (CAR19 internal HilDtag [1]; Jurkat cells, 24 hours): degradation of CAR19
ability of CART19.HilD to control tumor growth in vivo (luciferized Nalm-6; lenalidomide 30 mg/kg bid orally, FIG. 34): totally abolish
Nalm6 growth in vivo (luciferized Nalm-6; lenalidomide alone, data not shown): little effect
tumor relapse (luciferized Nalm-6; lenalidomide dosed at day 5 after CART19HilD adoptive transfer, FIG. 36): tumor relapse a few days after lenalidomide dosing
ability to control tumor growth in vivo (luciferized Nalm-6; lenalidomide dosed immediately after CART19.HilD transfer, FIG. 36): lost the ability to control tumor growth in vivo
time at which degradation is first evident [2]: ≤ 4 h
time to maximal degradation [2]: ≤ 8 h
response of CAR19 internal HilDtag JNL cells to CD19 positive Nalm6 cells (CAR19 internal HilDtag [3]): reduced this response in a dose-dependent manner
expression of CAR19 (CAR19): did not affect expression of CAR19
tumor control, later treatment of lenalidomide (Nalm6; day 5 post CART injection (FIG. 36)): loss of tumor control
tumor control, early injection of lenalidomide (Nalm6; mice treated with CART-HilD (FIG. 36)): absence of tumor control
tumor control by CART19.HilD (Nalm6; total flux vs days post Nalm6 implant (FIG. 34)): abolishes the ability of CART19.HilD to control tumor growth
killing curve of CART19-HilD against CD19-positive cells (Nalm6 cells): slightly shifted
CART cells in peripheral blood [4]: Loss of CART cells in peripheral blood
secreted IFN gamma by CART19 HilD cells ([5]; CD19 positive cells, FIG. 33A): decreased
secreted IL2 by CART19 HilD cells ([5]; CD19 positive cells, FIG. 33B): decreased
ability of CART19 to secrete cytokines ([5]; FIGS. 33A and 33B): immune to the addition of lenalidomide
anti-CD19 CAR expression (FACS) (CAR19 internal HilDtag [6]): degradation
CAR19 protein (Western blot) (CAR19 internal HilDtag [7]): degradation of CAR19
lenalidomide-dependent reduction of surface CAR levels [8]: only observed when CAR19 was fused to the HilD tag
response to CD19 positive Nalm6 cells [9]: reduced this response in a dose-dependent manner
effect on CD19-induced NFAT reporter signal ([10]; HilD-tagged CAR19 or lysine-free-HilD-tagged CAR19 (constructs 769, 770)): significantly reduced
effect on reporter response without the HilD tag ([10]; construct 765 (FurON_CAR19) with bazedoxifene): had no impact on reporter response; also recorded: did not impact the luminescence signal
decrease of luminescence signal at the highest doses ([10]; 8-hour treatment group (16 hr post-target cells)): 90%
decrease of luminescence signal at the highest doses ([10]; 28-hour treatment group (4 hr pre-target cells)): 100%
decrease of luminescence signal at the highest doses ([10]; 44-hour treatment group (20 hr pre-target cells)): 100%
reduction of CD19-induced reporter activation ([10]; construct 767 with bazedoxifene, lenalidomide 4 hours prior to K562+CD19 target cells): ~80%
reduction of luminescence signal ([10]; construct 769): ~100%
reduction of luminescence signal ([10]; construct 770): ~100%
